Measurements from US8097773B2, “Process for selecting banana clones and banana clones obtained thereby” (Rahan Meristem (1998) Ltd, priority 2004, dated 2012).

Key:
Format in all cases: in vivo, Musa acuminata AAA, cv. 'Grande Naine'
[1] = tested on: Extra dwarf mutant banana Grande Naine plantlets; test: Influence of GA3 on internode length of in-vitro banana plantlets (GA sensitivity bioassay), Extra dwarf
Protocol: (§1) Somaclonal variants with both high and low sensitivity to GA were generated as a consequence of an extensive duration in tissue culture. Both ‘off-types’ were detectable by a relatively simple bioassay developed in this laboratory (Table 4). […] On the other hand the ‘Extra Dwarf’ phenotype was insensitive to the presence of GA in the medium.
(§2) Meristem culture was performed on a single ‘Grande Naine’ clone employing a standard protocol used at Rahan Meristem. The meristems were sub-cultured extensively (23 cycles) to induce somaclonal variations. The in vitro plantlets were transferred to a stage III medium containing 10 ppm of gibberellic acid (GA). […] Further analysis of somaclonal variation was carried out in ex-vitro conditions. Following acclimatization, the plants were planted in 5 L pots and placed in a poly-ethylene covered greenhouse for approximately 16 weeks prior to selection of ‘off-types’. Candidate plants showing distinct somaclonal variations were selected and used for further analysis. Stability of the different mutations was monitored following the growth of the selected clones in a commercial plantation in Rosh Hanikra, Israel.

[2] = tested on: Dwarf mutant banana Grande Naine plantlets; test: Influence of GA3 on internode length of in-vitro banana plantlets (GA sensitivity bioassay), Dwarf
Protocol: as §1, §2

[3] = tested on: normal in-vitro banana Grande Naine plantlets; test: Influence of GA3 on internode length of in-vitro banana plantlets (GA sensitivity bioassay), normal; settings: GA3 10 mg/L in medium, grown 5 weeks, hormone-free control 14.2
Protocol: as §1, §2

C=C1C[C@]23C[C@@]1(O)CC[C@H]2[C@@]12C=C[C@H](O)[C@@](C)(C(=O)O1)[C@H]2[C@@H]3C(=O)O [GA3, gibberellic acid]
sensitivity to GA ([1]; 'Extra Dwarf' phenotype, GA in the medium): insensitive
"internode" length ([1]; Extra dwarf mutant plantlets, GA3 10 mg/L in medium, grown 5 weeks, hormone-free control 9.6): 9.6 cm·days
"internode" length ([2]; Dwarf plantlets, GA3 10 mg/L in medium, grown 5 weeks, hormone-free control 10.8): 14.9 b cm
sensitivity to GA ([2]; dwarf genotype, GA in the medium): showed sensitivity
"internode" length [3]: 21.7 a cm
